ChEMBL document CHEMBL4828722, “The synthesis and bioactivity of pyrrolo[2,3-d]pyrimidine derivatives as tyrosine kinase inhibitors for NSCLC cells with EGFR mutations” (Eur J Med Chem, 2021)
Activity calls are given as the source filed them. The calls are words filed in the database; no cut-off is given here.

Experiments:
[1] = biological target: Signal transducer and activator of transcription 3 (Homo sapiens) (UniProt P40763); assay: Inhibition of STAT3 phosphorylation at Ser727 residue in human HBE cells at 5 uM incubated for 2 hrs by immunoblotting analysis; type: cell-based
NCI-H1975 [2] = assay: Induction of cell cycle arrest in human NCI-H1975 cells harboring EGFR L858R/T790M mutant assessed as accumulation of cells in G2/M phase at 1 uM measured after 18 hrs by PI/RNaseA staining based flow cytometry analysis (Rvb= 17.33%); type: functional
[3] = biological target: Epidermal growth factor receptor (Homo sapiens, UniProt P00533, C797S/L858R/T790M); assay: Inhibition of […] EGFR L858R/T790M/C797S mutant (unknown origin) pretreated with substrate for 10 mins followed by ATP addition measured after 60 mins by mobility shift assay
[4] = biological target: T1, Epidermal growth factor receptor (Homo sapiens, UniProt P00533); assay: Inhibition of […] EGFR phosphorylation at Tyr992 residue in human HCC827 cells at 0.1 to 5 uM incubated for 2 hrs by immunoblotting analysis; type: cell-based; details: dose 0.1-5 µM
[5] = biological target: T1, Epidermal growth factor receptor; assay: Inhibition of wild type EGFR phosphorylation at Tyr1068 residue in human HBE cells up to 5 uM incubated for 2 hrs by immunoblotting analysis; type: cell-based; details: dose microM <=5, time 2.0 hrs
[6] = biological target: T1, Epidermal growth factor receptor; assay: Inhibition of […] EGFR phosphorylation at Tyr1068 residue in human HCC827 cells at 0.1 to 5 uM incubated for 2 hrs by immunoblotting analysis; type: cell-based; details: dose 0.1-5 µM
[7] = biological target: T1, Epidermal growth factor receptor; assay: Inhibition of wild type EGFR (unknown origin) at 80 nM pretreated with substrate for 10 mins followed by ATP addition measured after 60 mins by mobility shift assay relative to control
[8] = biological target: T1, Epidermal growth factor receptor; assay: Inhibition of wild type EGFR (unknown origin) pretreated with substrate for 10 mins followed by ATP addition measured after 60 mins by mobility shift assay
[9] = biological target: T1, Epidermal growth factor receptor; assay: Inhibition of wild type EGFR phosphorylation at Tyr992 residue in human HBE cells up to 5 uM incubated for 2 hrs by immunoblotting analysis; type: cell-based; details: dose microM <=5, time 2.0 hrs
HCC827 = assay: Induction of apoptosis in human HCC827 cells harboring EGFR del E746-A750 mutant assessed as dead cells at 0.5 uM measured after 18 hrs by Annexin V-FITC/PI staining based flow cytometry analysis (Rvb= […]); type: functional
NCI-H1975 [10] = assay: Cytotoxicity against human NCI-H1975 cells harboring EGFR L858R/T790M mutant assessed as reduction in cell viability measured after 48 hrs by CCK8 assay; type: functional, cell-based; details: NCI-H1975, 48 h
[11] = biological target: T1, Epidermal growth factor receptor; assay: Inhibition of […] EGFR phosphorylation at Tyr992 residue in human NCI-H1975 cells at 0.1 to 5 uM incubated for 2 hrs by immunoblotting analysis; type: cell-based; details: dose 0.1-5 µM
[12] = tested on: Epidermal growth factor receptor (Homo sapiens), P00533 [T790M]; assay: Inhibition of […] EGFR T790M mutant (unknown origin) at 2 nM pretreated with substrate for 10 mins followed by ATP addition measured after 60 mins by mobility shift assay relative to control
[13] = biological target: Epidermal growth factor receptor (Homo sapiens, UniProt P00533, T790M); assay: Inhibition of […] EGFR T790M mutant (unknown origin) pretreated with substrate for 10 mins followed by ATP addition measured after 60 mins by mobility shift assay
[14] = biological target: Epidermal growth factor receptor (Homo sapiens, UniProt P00533, C797S); assay: Inhibition of […] EGFR C797S mutant (unknown origin) pretreated with substrate for 10 mins followed by ATP addition measured after 60 mins by mobility shift assay
[15] = tested on: Epidermal growth factor receptor (Homo sapiens), P00533 [UNDEFINED MUTATION]; assay: Inhibition of […] EGFR Del E746/A750 mutant (unknown origin) at 2 nM pretreated with substrate for 10 mins followed by ATP addition measured after 60 mins by mobility shift assay relative to control
[16] = biological target: Epidermal growth factor receptor (Homo sapiens, UniProt P00533, DELE746); assay: Inhibition of […] EGFR Del E746/A750 mutant (unknown origin) pretreated with substrate for 10 mins followed by ATP addition measured after 60 mins by mobility shift assay
[17] = tested on: Epidermal growth factor receptor (Homo sapiens), P00533 [L858R]; assay: Inhibition of […] EGFR L858R mutant (unknown origin) at 2 nM pretreated with substrate for 10 mins followed by ATP addition measured after 60 mins by mobility shift assay relative to control
[18] = biological target: T1, Epidermal growth factor receptor; assay: Inhibition of […] EGFR phosphorylation at Tyr1068 residue in human NCI-H1975 cells at 0.1 to 5 uM incubated for 2 hrs by immunoblotting analysis; type: cell-based; details: dose 0.1-5 µM
[19] = tested on: Epidermal growth factor receptor (Homo sapiens), P00533 [L858R,T790M]; assay: Inhibition of […] EGFR L858R/T790M mutant (unknown origin) at 2 nM pretreated with substrate for 10 mins followed by ATP addition measured after 60 mins by mobility shift assay relative to control
NCI-H1975 [20] = assay: Induction of cell cycle arrest in human NCI-H1975 cells harboring EGFR L858R/T790M mutant assessed as accumulation of cells in G0/G1 phase at 1 uM measured after 18 hrs by PI/RNaseA staining based flow cytometry analysis (Rvb= 42.69%); type: functional
[21] = tested on: Epidermal growth factor receptor (Homo sapiens), P00533 [C797S]; assay: Inhibition of […] EGFR C797S mutant (unknown origin) at 2 nM pretreated with substrate for 10 mins followed by ATP addition measured after 60 mins by mobility shift assay relative to control
[22] = Cytotoxicity against human HBE cells assessed as reduction in cell viability measured after 48 hrs by CCK8 assay; type: cell-based
[23] = tested on: Epidermal growth factor receptor (Homo sapiens), P00533 [L858R,T790M,C797S]; assay: Inhibition of […] EGFR L858R/T790M/C797S mutant (unknown origin) at 2 nM pretreated with substrate for 10 mins followed by ATP addition measured after 60 mins by mobility shift assay relative to control
[24] = biological target: Epidermal growth factor receptor (Homo sapiens, UniProt P00533, L858R); assay: Inhibition of […] EGFR L858R mutant (unknown origin) pretreated with substrate for 10 mins followed by ATP addition measured after 60 mins by mobility shift assay
[25] = biological target: Epidermal growth factor receptor (Homo sapiens, UniProt P00533, L858R/T790M); assay: Inhibition of […] EGFR L858R/T790M mutant (unknown origin) pretreated with substrate for 10 mins followed by ATP addition measured after 60 mins by mobility shift assay
[26] = Selectivity index, ratio of IC50 for cytotoxicity against human HBE cells to IC50 for cytotoxicity against human HCC827 cells harboring EGFR del E746-A750 mutant assessed as reduction in cell viability measured after 48 hrs by CCK8 assay
[27] = Selectivity index, ratio of IC50 for cytotoxicity against human A549 cells harboring wild type EGFR to IC50 for cytotoxicity against human HCC827 cells harboring EGFR del E746-A750 mutant assessed as reduction in cell viability measured after 48 hrs by CCK8 assay

T1 sequence (P00533 whole entry): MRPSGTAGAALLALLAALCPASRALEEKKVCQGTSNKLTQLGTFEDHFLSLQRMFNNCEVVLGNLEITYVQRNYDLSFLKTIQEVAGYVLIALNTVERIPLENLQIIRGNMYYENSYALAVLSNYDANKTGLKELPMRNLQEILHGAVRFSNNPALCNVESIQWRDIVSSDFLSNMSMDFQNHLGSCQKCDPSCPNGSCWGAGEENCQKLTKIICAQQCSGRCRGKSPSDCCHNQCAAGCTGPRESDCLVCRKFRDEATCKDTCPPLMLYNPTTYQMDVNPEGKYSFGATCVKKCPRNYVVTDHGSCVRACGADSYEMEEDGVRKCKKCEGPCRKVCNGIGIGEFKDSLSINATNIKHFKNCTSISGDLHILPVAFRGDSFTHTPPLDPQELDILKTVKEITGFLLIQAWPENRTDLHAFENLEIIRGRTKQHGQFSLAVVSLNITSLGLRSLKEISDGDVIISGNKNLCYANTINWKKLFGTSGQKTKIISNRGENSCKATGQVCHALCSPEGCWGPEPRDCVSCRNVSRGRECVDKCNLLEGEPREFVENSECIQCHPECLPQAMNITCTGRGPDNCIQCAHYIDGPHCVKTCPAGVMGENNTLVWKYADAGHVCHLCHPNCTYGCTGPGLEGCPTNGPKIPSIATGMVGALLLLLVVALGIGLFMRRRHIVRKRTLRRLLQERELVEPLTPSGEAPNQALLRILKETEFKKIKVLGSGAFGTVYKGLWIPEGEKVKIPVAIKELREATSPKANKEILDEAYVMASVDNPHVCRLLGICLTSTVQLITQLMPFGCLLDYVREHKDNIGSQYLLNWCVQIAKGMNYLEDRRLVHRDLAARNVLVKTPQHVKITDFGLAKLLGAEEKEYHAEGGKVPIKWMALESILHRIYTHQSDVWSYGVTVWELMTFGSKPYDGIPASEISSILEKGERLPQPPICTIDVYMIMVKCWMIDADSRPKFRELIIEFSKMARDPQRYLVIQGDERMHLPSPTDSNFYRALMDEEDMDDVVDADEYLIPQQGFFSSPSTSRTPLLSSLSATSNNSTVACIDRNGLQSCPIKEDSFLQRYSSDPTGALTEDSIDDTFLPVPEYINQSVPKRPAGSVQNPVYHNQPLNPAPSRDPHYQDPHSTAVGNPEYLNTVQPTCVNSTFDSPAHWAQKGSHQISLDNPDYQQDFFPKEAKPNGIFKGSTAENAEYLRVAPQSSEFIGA
Signal transducer and activator of transcription 3 (Homo sapiens), sequence (P40763 whole entry): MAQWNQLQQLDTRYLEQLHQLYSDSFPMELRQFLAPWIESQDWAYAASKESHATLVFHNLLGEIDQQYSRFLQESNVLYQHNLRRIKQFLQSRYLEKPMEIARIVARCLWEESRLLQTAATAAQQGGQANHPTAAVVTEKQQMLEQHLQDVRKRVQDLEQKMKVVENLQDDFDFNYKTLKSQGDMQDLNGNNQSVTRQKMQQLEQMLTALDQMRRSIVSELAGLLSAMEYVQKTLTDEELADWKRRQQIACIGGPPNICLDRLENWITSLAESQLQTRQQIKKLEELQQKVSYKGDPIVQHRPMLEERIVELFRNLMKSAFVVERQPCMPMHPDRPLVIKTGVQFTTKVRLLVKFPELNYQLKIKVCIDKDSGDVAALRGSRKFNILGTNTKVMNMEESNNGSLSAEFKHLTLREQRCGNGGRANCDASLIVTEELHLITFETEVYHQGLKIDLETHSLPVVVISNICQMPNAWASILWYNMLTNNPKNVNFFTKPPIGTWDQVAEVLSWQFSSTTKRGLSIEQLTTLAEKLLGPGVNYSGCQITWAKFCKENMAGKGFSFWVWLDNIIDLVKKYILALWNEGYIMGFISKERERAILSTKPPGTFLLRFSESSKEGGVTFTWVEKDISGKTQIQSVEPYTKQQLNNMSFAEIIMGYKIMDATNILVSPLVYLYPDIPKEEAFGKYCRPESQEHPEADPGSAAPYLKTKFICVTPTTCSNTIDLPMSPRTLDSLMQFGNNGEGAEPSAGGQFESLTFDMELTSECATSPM
Epidermal growth factor receptor (Homo sapiens), P00533 [L858R,T790M], sequence (P00533 whole entry T790M/L858R, looked up): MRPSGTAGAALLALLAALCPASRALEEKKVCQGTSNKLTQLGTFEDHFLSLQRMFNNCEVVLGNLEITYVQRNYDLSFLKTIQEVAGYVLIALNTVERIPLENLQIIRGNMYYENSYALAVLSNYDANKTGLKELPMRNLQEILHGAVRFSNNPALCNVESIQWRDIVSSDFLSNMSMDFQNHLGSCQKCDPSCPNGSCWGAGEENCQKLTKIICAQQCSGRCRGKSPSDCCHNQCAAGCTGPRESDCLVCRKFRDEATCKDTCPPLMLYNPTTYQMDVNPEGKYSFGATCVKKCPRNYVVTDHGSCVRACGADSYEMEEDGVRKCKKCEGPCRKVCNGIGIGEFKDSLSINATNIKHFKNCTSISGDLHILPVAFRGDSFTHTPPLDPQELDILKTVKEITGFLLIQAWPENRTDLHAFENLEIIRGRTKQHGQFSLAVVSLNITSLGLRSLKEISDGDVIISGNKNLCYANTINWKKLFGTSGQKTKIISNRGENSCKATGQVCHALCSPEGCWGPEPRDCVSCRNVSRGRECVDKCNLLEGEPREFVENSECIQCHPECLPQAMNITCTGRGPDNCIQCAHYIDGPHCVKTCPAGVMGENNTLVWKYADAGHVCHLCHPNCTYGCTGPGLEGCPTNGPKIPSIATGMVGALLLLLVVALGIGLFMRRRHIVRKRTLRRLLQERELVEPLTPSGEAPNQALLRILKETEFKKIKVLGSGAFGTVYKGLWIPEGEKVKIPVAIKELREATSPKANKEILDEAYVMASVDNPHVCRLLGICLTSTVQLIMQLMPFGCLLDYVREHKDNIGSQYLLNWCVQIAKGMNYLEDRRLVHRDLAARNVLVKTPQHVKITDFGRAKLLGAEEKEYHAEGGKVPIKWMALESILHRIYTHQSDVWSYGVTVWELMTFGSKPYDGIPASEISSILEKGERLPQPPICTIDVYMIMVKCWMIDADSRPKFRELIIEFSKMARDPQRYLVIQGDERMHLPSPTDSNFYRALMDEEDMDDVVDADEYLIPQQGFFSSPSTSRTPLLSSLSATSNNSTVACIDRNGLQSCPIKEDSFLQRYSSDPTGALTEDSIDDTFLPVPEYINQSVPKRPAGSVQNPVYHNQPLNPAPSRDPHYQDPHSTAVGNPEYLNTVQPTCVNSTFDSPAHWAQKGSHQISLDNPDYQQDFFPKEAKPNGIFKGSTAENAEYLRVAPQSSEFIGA
Epidermal growth factor receptor (Homo sapiens, UniProt P00533, C797S), sequence (P00533 25-1210 C797S limits assumed): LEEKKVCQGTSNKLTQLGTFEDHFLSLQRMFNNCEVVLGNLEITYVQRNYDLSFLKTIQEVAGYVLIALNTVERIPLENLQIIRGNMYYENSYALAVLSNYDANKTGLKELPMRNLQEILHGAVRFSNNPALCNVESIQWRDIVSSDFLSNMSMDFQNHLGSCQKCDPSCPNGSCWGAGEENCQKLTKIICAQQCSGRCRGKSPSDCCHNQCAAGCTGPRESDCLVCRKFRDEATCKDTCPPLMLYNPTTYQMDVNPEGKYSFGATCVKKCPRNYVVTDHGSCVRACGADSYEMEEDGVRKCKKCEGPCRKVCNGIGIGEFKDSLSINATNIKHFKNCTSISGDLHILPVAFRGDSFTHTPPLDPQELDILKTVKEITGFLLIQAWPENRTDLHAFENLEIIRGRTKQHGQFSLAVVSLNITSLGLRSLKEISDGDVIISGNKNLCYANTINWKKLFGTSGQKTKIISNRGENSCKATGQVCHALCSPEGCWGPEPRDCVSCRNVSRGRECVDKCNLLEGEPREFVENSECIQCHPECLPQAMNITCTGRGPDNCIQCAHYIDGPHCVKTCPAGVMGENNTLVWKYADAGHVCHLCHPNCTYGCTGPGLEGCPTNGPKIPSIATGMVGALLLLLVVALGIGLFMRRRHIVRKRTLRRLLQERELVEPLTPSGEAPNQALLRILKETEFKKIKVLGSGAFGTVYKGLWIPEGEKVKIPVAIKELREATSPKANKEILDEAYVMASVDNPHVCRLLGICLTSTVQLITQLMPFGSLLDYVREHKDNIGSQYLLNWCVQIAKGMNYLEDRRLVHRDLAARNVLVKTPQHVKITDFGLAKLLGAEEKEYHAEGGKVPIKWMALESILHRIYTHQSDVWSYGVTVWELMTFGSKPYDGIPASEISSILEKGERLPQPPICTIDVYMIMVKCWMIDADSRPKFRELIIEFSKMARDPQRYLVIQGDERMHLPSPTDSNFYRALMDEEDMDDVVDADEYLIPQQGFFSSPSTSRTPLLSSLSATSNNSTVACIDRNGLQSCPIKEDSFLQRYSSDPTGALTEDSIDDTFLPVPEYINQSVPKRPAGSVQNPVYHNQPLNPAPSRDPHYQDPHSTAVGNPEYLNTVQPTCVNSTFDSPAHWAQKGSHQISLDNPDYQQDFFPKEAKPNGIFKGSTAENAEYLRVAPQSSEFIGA

C=CC(=O)Nc1cccc(Oc2nc(Nc3ccc(N4CCN(C)CC4)c(F)c3)nc3[nH]ccc23)c1 [ABIVERTINIB]
inhibition [1]: inactive
Activity (NCI-H1975 [2]): 17.13%

C=CC(=O)Nc1cccc(Oc2nc(Nc3ccc(N4CCN(C)CC4)c([N+](=O)[O-])c3)nc3[nH]ccc23)c1
IC50 [3]: 829 nM
inhibition [4]: Active
inhibition [5]: inactive
inhibition [6]: Active
inhibition [7]: 37%
IC50 [8]: 111 nM
inhibition [9]: inactive
inhibition [1]: inactive
Activity (HCC827): 1.4%
IC50 (NCI-H1975 [10]): 3.1 µM
inhibition [11]: Active
inhibition [12]: 91%
IC50 [13]: > 10 µM
IC50 [14]: 1.2 nM
inhibition [15]: 23%
IC50 [16]: 10 nM
inhibition [17]: 19%
inhibition [18]: Active
inhibition [19]: 49%
Activity (NCI-H1975 [20]): 72.08%
Activity (NCI-H1975 [2]): 14.81%
inhibition [21]: 3.7%
IC50 [22]: 7.54 µM
inhibition [23]: 5.8%
IC50 [24]: 0.39 nM
IC50 [25]: 7.3 nM

C=CC(=O)Nc1cccc(Oc2nc(Nc3ccc(N4CCN(C)CC4)c(N)c3)nc3[nH]ccc23)c1
Selectivity Index [26]: 493
IC50 [3]: 119 nM
inhibition [4]: Active
inhibition [5]: inactive
inhibition [6]: Active
inhibition [7]: 63%
Selectivity Index [27]: 132
IC50 [8]: 22 nM
inhibition [9]: inactive
inhibition [1]: inactive
Activity (HCC827): 2.1%
IC50 (NCI-H1975 [10]): 3.84 µM
inhibition [11]: Active
inhibition [12]: 96%
IC50 [13]: > 10 µM
IC50 [14]: 0.76 nM
inhibition [15]: 63%
IC50 [16]: 2 nM
inhibition [17]: 40%
inhibition [18]: Active
inhibition [19]: 85%
Activity (NCI-H1975 [20]): 69.17%
Activity (NCI-H1975 [2]): 11.6%
inhibition [21]: 16%
IC50 [22]: 22.7 µM
inhibition [23]: 8%
IC50 [24]: 0.21 nM
IC50 [25]: 2.2 nM
